Assay results as given in ChEMBL document CHEMBL4138213, “Synthesis and biological characterization of ubenimex-fluorouracil conjugates for anti-cancer therapy” (Eur J Med Chem, 2018).
Calls of active or inactive are those of the source. No cut-off for these calls is given here.

Tests used:
Aminopeptidase N = target: T1, Aminopeptidase N (Sus scrofa, UniProt P15145); test: Inhibition of porcine kidney CD13 using L-leucine-p-nitroanilide as substrate preincubated for 5 mins followed by substrate addition measured after 30 mins
T1 sequence (P15145 whole entry): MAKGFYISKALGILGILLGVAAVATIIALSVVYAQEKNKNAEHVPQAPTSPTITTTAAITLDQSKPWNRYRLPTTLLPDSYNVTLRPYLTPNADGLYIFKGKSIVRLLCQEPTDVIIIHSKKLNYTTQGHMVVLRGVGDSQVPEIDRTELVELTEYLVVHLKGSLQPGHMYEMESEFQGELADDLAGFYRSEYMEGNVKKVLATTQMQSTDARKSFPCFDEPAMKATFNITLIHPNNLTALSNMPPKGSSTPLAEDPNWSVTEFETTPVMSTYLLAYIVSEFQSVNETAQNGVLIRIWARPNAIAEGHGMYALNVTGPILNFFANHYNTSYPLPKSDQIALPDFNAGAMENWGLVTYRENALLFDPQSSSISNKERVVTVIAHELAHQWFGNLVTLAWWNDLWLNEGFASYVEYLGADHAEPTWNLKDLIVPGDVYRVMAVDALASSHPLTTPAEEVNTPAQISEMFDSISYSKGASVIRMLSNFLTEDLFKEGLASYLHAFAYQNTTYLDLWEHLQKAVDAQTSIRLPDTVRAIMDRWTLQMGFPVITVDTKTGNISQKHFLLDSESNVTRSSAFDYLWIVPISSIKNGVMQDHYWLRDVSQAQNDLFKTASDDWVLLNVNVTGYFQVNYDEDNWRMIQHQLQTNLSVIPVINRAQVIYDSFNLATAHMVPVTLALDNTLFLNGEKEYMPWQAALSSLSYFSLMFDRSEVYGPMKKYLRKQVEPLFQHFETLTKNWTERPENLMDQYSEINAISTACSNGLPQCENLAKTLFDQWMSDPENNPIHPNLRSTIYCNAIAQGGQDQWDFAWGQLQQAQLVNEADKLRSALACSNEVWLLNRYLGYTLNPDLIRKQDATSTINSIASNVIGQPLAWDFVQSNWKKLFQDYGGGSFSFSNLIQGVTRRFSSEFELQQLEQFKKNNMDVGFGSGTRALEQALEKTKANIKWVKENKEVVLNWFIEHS

PLC-PRF-5 [1] = test: Antiproliferative activity against human PLC/PRF/5 cells after 48 hrs by MTT assay; details: PLC-PRF-5, 48 h
cells = details: Homo sapiens, ES-2, 48 h
Description: Antiproliferative activity against human ES2 cells after 48 hrs by MTT assay

Rattus norvegicus [2] = test: VRT (0 to infinity) in Wistar rat at 80 mg/kg, iv after 0.05 to 24 hrs by HPLC-MS/MS analysis; format: ADME, organism-based; details: in vivo
[3] = Drug level in Wistar rat plasma treated with (5-fluoro-2,4-dioxo-3,4-dihydropyrimidin1(2H)-yl)methyl-2-((S)-2-((2S,3R)-3-amino-2-hydroxy-4-phenylbut-anamido)-4-methylpentanamido)acetate hydrochloride assessed as carboxylesterase-mediated compound formation at 80 mg/kg, iv by HPLC-MS/MS analysis; format: ADME, organism-based; details: in vivo
[4] = Apparent clearance in Wistar rat at 80 mg/kg, iv after 0.05 to 24 hrs by HPLC-MS/MS analysis; format: ADME, organism-based; details: in vivo, read-out: CL(app) (converted)
[5] = Volume of distribution during elimination phase in Wistar rat at 80 mg/kg, iv after 0.05 to 24 hrs by HPLC-MS/MS analysis; format: ADME, organism-based; details: in vivo, read-out: Vz
[6] = Cmax in Wistar rat at 80 mg/kg, iv after 0.05 to 24 hrs by HPLC-MS/MS analysis; format: ADME, organism-based; design: dose 80 mg/kg, route intravenous; details: in vivo
[7] = (§1) Terminal Half life in Wistar rat at 80 mg/kg, iv after 0.05 to 24 hrs by HPLC-MS/MS analysis; format: ADME, organism-based; details: Wistar, in vivo, read-out: beta t1/2 (converted)
[8] = AUC (0 to infinity) in Wistar rat at 80 mg/kg, iv after 0.05 to 24 hrs by HPLC-MS/MS analysis; format: ADME, organism-based; design: dose 80 mg/kg, time infinity, route intravenous; details: in vivo
[9] = (§2) MRT (0 to infinity) in Wistar rat at 80 mg/kg, iv after 0.05 to 24 hrs by HPLC-MS/MS analysis; format: ADME, organism-based; details: Wistar, in vivo
PLC-PRF-5 [10] = test: Induction of apoptosis in human PLC/PRF/5 cells assessed as necrotic cells at 20 uM after 48 hrs by annexin-V-FITC/propidium iodide staining-based flow cytometric method (reference value: 0.106%); format: functional
H22 [11] = test: Antimetastatic activity in […] cells xenografted in iv dosed mouse assessed as decrease in lung metastasis nodus number administered 5 days followed by 2 days of withdrawal; format: functional, organism-based
[12] = Antiproliferative activity against human H7402 cells after 48 hrs by MTT assay; details: H7402, 48 h
A549 = test: Antiproliferative activity against human A549 cells after 48 hrs by MTT assay; details: A549, 48 h
PLC-PRF-5 [13] = test: Induction of apoptosis in human PLC/PRF/5 cells assessed as late apoptotic cells at 20 uM after 48 hrs by annexin-V-FITC/propidium iodide staining-based flow cytometric method (reference value: 0.341%); format: functional
Rattus norvegicus [14] = test: as §1; format: ADME, organism-based; details: in vivo
Mus musculus [15] = test: Toxicity in Kunming mouse xenografted with 5-FU-resistant […] H22 cells assessed as mortality at 82 mg/kg, iv after 14 days; format: organism-based; details: in vivo, 336 h
U-937 = test: cells; details: Homo sapiens, U-937, 48 h
Description: Antiproliferative activity against human U937 cells after 48 hrs by MTT assay

[16] = Drug metabolism in Wistar rat plasma assessed as carboxylesterase-mediated 2-((S)-2-((2S,3R)-3-amino-2-hydroxy-4-phenylbutanamido)-4-methylpentan-amido)-acetic acid formation at 80 mg/kg, iv by HPLC-MS/MS analysis; format: ADME, organism-based; details: in vivo
Thoracic aorta = test: Antiangiogenic activity in Wistar rat thoracic aorta ring assessed as inhibition of microvessels sprouting at 20 ug/ml treated every other day for 9 days; format: functional, tissue-based
H22 [17] = test: Antitumor activity against […] cells xenografted in iv dosed mouse administered 5 days per week for 2 weeks; format: functional, organism-based
PLC-PRF-5 [18] = test: Anticlonogenic activity against human PLC/PRF/5 cells after 2 weeks by Giemsa staining-based inverted microscopic method; format: functional, cell-based
[19] = Drug metabolism in Wistar rat plasma assessed as peptidase-mediated ubenimex formation at 80 mg/kg, iv by HPLC-MS/MS analysis; format: ADME, organism-based; details: in vivo
PLC-PRF-5 [20] = test: Induction of apoptosis in human PLC/PRF/5 cells assessed as early apoptotic cells at 20 uM after 48 hrs by annexin-V-FITC/propidium iodide staining-based flow cytometric method (reference value: 5.82%); format: functional
PLC-PRF-5 [21] = test: Downregulation of CD13 expression in human PLC/PRF/5 cells at 10 uM after 48 hrs by flow cytometric method; format: functional, cell-based
[22] = Drug metabolism in Wistar rat plasma assessed as carboxylesterase-mediated 5-FU formation at 80 mg/kg, iv by HPLC-MS/MS analysis; format: ADME, organism-based; details: in vivo
[23] = Drug metabolism in human plasma assessed as 5-FU formation at 4 mg/ml after 8 hrs by HPLC method; format: ADME, cell-free
Rattus norvegicus [24] = test: as §2; format: ADME, organism-based; details: in vivo
HepG2 = test: cells; details: Homo sapiens, HepG2, 48 h
PLC-PRF-5 [25] = test: Induction of reactive oxygen species formation in human PLC/PRF/5 cells at 10 uM by DCF-DA staining-based flow cytometric method; format: functional, cell-based; details: TDE = time-dependent effect
Mus musculus [26] = test: Toxicity in Kunming mouse xenografted with 5-FU-resistant […] H22 cells assessed as body weight loss at 82 mg/kg, iv measured for 14 days during compound dosing; format: organism-based; details: in vivo, 336 h
HCT-116 = test: cells; details: Homo sapiens, HCT-116, 48 h
PLC-PRF-5 [27] = test: Induction of apoptosis in human PLC/PRF/5 cells assessed as viable cells at 20 uM after 48 hrs by annexin-V-FITC/propidium iodide staining-based flow cytometric method (reference value: 93.7%); format: functional; details: PLC-PRF-5, 48 h, read-out: Activity
U-266 = test: Antiproliferative activity against human U266 cells after 48 hrs by MTT assay; details: U-266, 48 h
Homo sapiens = species: Homo sapiens; test: Antiinvasive activity in human ES2 cells at 5 ug/ml after 24 hrs by transwell assay; format: functional, cell-based
H22 [28] = test: Antitumor activity against 5-FU-resistant […] cells xenografted in Kunming mouse at 82 mg/kg, iv after 14 days; format: functional, organism-based

CC(C)C[C@H](NC(=O)[C@@H](O)[C@H](N)Cc1ccccc1)C(=O)NCCC(=O)OCn1cc(F)c(=O)[nH]c1=O
IC50 (Aminopeptidase N): 0.68 µM | IC50 (PLC-PRF-5 [1]): 59 µM | IC50 (cells): 131 µM

CC(C)C[C@H](NC(=O)[C@@H](O)[C@H](N)Cc1ccccc1)C(=O)NCC(=O)O.Cl
VRT (Rattus norvegicus [2]): 3.797 hr2 | Drug metabolism [3]: Metabolite_Detected | IC50 (Aminopeptidase N): 0.6 µM | clearance [4]: 2.21 L/h/kg | Vd [5]: 3.93 L/kg | Cmax [6]: 8.57 µg/mL | half-life [7]: 1.23 h | AUC(0-inf) [8]: 36.2 µg·h/mL | MRT inf [9]: 3.22 h

CC(C)C[C@H](NC(=O)[C@@H](O)[C@H](N)Cc1ccccc1)C(=O)NCC(=O)OCn1cc(F)c(=O)[nH]c1=O.Cl
VRT (Rattus norvegicus [2]): 4.423 hr2 | Activity (PLC-PRF-5 [10]): 0% | Activity (H22 [11]): Dose-dependent effect | IC50 (Aminopeptidase N): 0.18 µM | IC50 [12]: 19.9 µM | clearance [4]: 5.43 L/h/kg | Vd [5]: 6.23 L/kg | IC50 (A549): 15.3 µM | Cmax [6]: 5.87 µg/mL | Activity (PLC-PRF-5 [13]): 4.69% | IC50 (PLC-PRF-5 [1]): 16.5 µM | IC50 (cells): 23.5 µM | beta t1/2 (Rattus norvegicus [14]): 0.795 h | Activity (Mus musculus [15]): Non-Toxic | IC50 (U-937): 10.2 µM | Drug metabolism [16]: Metabolite_Detected | AUC(0-inf) [8]: 14.7 µg·h/mL | Activity (Thoracic aorta): Active | Activity (H22 [17]): Dose-dependent effect | Activity (PLC-PRF-5 [18]): Dose-dependent effect | Drug metabolism [19]: Metabolite_Detected | Activity (PLC-PRF-5 [20]): 24.2% | Activity (PLC-PRF-5 [21]): Active | Drug metabolism [22]: Metabolite_Detected | Drug metabolism [23]: Metabolite_Detected | MRT (Rattus norvegicus [24]): 2.576 h | IC50 (HepG2): 14.2 µM | Activity (PLC-PRF-5 [25]): Tde | Activity (Mus musculus [26]): Non-Toxic | IC50 (HCT-116): 26 µM | viability at 20 µM (PLC-PRF-5 [27]): 71.1% | IC50 (U-266): 31.6 µM | Activity (Homo sapiens): Active | Activity (H22 [28]): Active

CC(C)C[C@H](NC(=O)[C@@H](O)[C@H](N)Cc1ccccc1)C(=O)NCCCC(=O)OCn1cc(F)c(=O)[nH]c1=O
IC50 (Aminopeptidase N): 0.69 µM | IC50 (PLC-PRF-5 [1]): 53 µM | IC50 (cells): 110 µM
